{"source": "ChEMBL document CHEMBL3232765", "about": "“Anti-mycobacterial activity of 1,3-diaryltriazenes” (Eur J Med Chem, 2014)", "tested_on": "Mycobacterium tuberculosis", "assay": "Antimycobacterial activity against multidrug-resistant Mycobacterium tuberculosis LAM-1 at 0.73 uM after 4 to 6 days by BACTEC MGIT 960 assay", "type": "functional, organism-based", "note": "Active and inactive are the calls of the source. The rule behind the calls is not given here.", "data": [{"smiles": "NNC(=O)c1ccncc1", "note": "[ISONIAZID]", "values": [{"measurement": "Activity", "result": "inactive"}]}]}
